Experimental data from US5053424A, “2-(N-acyl)amino-6,7-dimethoxy tetralines, and pharmaceutical compositions having antihypertensive activity containing same” (Sigma-Tau Industrie Farmaceutiche Riunite S.p.A., priority 1989, dated 1991).
Structures can show the parent of a compound that is named as a salt. Where two headings read alike, the source gives them in different places.

Legend:
[1] = Tolerability in mice; parameters: species or system mice (male albino Swiss); settings: mouse, in vivo, read-out: TOLERABILITY dose
Method: Male albino Swiss mice weighing 22-24 g were used in this test.
One group of animals (4/dose) which had been kept fasting for 18 hours was orally administered the compounds dissolved in twice distilled water. The same compounds dissolved in saline at pH=7 were intravenously injected in a further group of animals which had free access to food and drinking water. All of the animals were monitored for 7 days.

[2] = LD50 in mice (Weil's method); settings: mouse, in vivo; intravenous route, male Albino Swiss mice
Method: LD50 was assessed according to the Carrol S. WEIL's method (Biometrics, pages […] (1952)) on male Albino Swiss mice weighing 22-24 g. The compounds dissolved in […] saline solution were administered via the intravenous route.

[3] = test system: Normotensive cats; assay: Measure of arterial pressure in cats (hypotensive effect in normotensive cats); assay type: in vivo; settings: via crural vein; as to EFFECT DURATION (hypotension in normotensive cats): key: S: short; A: average; L: long
Method: (a) Measure of arterial pressure in cats.
Normotensive cats of either sex weighing 2.5-3.5 kgs were used in this test.
The animals fasted for 18 hours were anesthetized with Na Nembutal (30 mg/kg) and ethyl urethane (300 mg/kg i.p.). The crural vein and artery of the animals were cannulated, the former for administering the compounds, the latter for monitoring the arterial pressure. The arterial pressure was measured via a mercury gauge connected to a rotating kymograph.
The compounds were dissolved in sterile 0.9% saline and administered at physiological pH in a 0.5 ml/kg volume.

[4] = test system: SHR hypertensive rats; assay: Non-invasive measure of arterial pressure in genetically hypertensive rats (SHR); assay type: in vivo, rats (male SHR)
Method: (b) Non-invasive measure of arterial pressure in genetically hypertensive rats.
Male SHR rats (Charles River) of 3-4 months were used in this test. The compounds listed were dissolved in either 0.9% saline or twice distilled water and administered via the oral route or i.p. (50-100 mg/5 ml/kg).
The animals, housed in individual cages at 23° C. and 60% humidity, had free access to food and drinking water. A BP recorder (Letica) equipped with a two-way polygraph was used. The systolic and diastolic pressure and the heart rate were recorded. The animals, a few days before the test began, were accustomed to be constrained on a heating plate (at 38° C.±1° C.) for 20 minutes).
During the pre-tests, the assessments were made at time 0 (8^30 -9^30 a.m.) and after 1, 2 and 4 hours.
Every assessment was the average of 3 measures and the maximum residence time of the animal in the thermostatized chamber (for the whole test duration) was 40 minutes.
Student's "t" test was used for assessing the difference with respect to the control group and its own 0 time.

[5] = iv, e.p. (head), intravenously injected in saline pH 7, monitored 7 days
[6] = os (oral), fasted mice, monitored 7 days

| SMILES | MTD at 168 h [1, 5] | MTD at 168 h [1, 6] | LD50 [2] | HYPOTENSIVE EFFECT IN NORMOTENSIVE CATS, hypotension ([3]; dose 1-4 mg/kg) | EFFECT DURATION (hypotension in normotensive cats) ([3]; dose 2 mg/kg) | also measured |
| --- | --- | --- | --- | --- | --- | --- |
| COc1cc2c(cc1OC)CC(NC(=O)C(N)Cc1c[nH]c3ccccc13)CC2 (stereo not shown) [ST 580, 2-N-tryptophylamino-6,7-dimethoxy tetraline hydrochloride] | > 50 mg/kg | > 50 mg/kg | 66.7 mg/kg | 0 mm Hg | – | – |
| COc1cc2c(cc1OC)CC(NC(=O)C(N)CCSC)CC2 (stereo not shown) [ST 581, 2-N-methionylamino-6,7-dimethoxy tetraline hydrochloride] | > 50 mg/kg | > 50 mg/kg | 74 mg/kg | 0 mm Hg | – | – |
| COc1cc2c(cc1OC)CC(NC(=O)CN)CC2 (stereo not shown) [ST 582, 2-N-glycylamino-6,7-dimethoxy tetraline hydrochloride] | > 50 mg/kg | > 50 mg/kg | 72.3 mg/kg | – | – | EFFECT DURATION (hypotension in normotensive cats) ([3]; dose 10 mg/kg): S; ANTIHYPERTENSIVE EFFECT IN SHR HYPERTENSIVE RATS ([4]; 50 mg/kg i.p., 1st h): -37 mm Hg; ANTIHYPERTENSIVE EFFECT IN SHR HYPERTENSIVE RATS ([4]; 50 mg/kg i.p., 2nd h): -27 mm Hg; ANTIHYPERTENSIVE EFFECT IN SHR HYPERTENSIVE RATS ([4]; 50 mg/kg i.p., 4th h): 0 mm Hg |
| COc1cc2c(cc1OC)CC(NC(=O)[C@H](C)NC(=O)[C@@H](N)CC(C)C)CC2.Cl (stereo partly shown) [ST 584, 2-(N-leucylalanyl)amino-6,7-dimethoxy tetraline hydrochloride] | > 50 mg/kg | > 50 mg/kg | 167 mg/kg | – | – | ANTIHYPERTENSIVE EFFECT IN SHR HYPERTENSIVE RATS ([4]; dose "10C" [sic] mg/kg os, 1st h): -12 mm Hg; ANTIHYPERTENSIVE EFFECT IN SHR HYPERTENSIVE RATS ([4]; dose "10C" [sic] mg/kg os, 2nd h): 0 mm Hg; ANTIHYPERTENSIVE EFFECT IN SHR HYPERTENSIVE RATS ([4]; dose "10C" [sic] mg/kg os, 4th h): 0 mm Hg |
| COc1cc2c(cc1OC)CC(NC(=O)[C@H](C)NC(=O)[C@@H](N)Cc1c[nH]c3ccccc13)CC2 (stereo partly shown) [ST 585, 2-(N-tryptophylalanyl)amino-6,7-dimethoxy tetraline hydrochloride] | > 50 mg/kg | > 50 mg/kg | 115 mg/kg | – | – | HYPOTENSIVE EFFECT IN NORMOTENSIVE CATS, hypotension ([3]; dose 4 mg/kg): 0 mm Hg; EFFECT DURATION (hypotension in normotensive cats) ([3]; dose 10 mg/kg): S |
| COc1cc2c(cc1OC)CC(NC(=O)[C@H](C)NC(=O)[C@@H](N)CCSC)CC2.Cl (stereo partly shown) [ST 586, 2-(N-methionylalanyl)amino-6,7-dimethoxy tetraline hydrochloride] | > 50 mg/kg | > 50 mg/kg | 229 mg/kg | – | – | HYPOTENSIVE EFFECT IN NORMOTENSIVE CATS, hypotension ([3]; dose 2 mg/kg): 0 mm Hg; EFFECT DURATION (hypotension in normotensive cats) ([3]; dose 4 mg/kg): S |
| COc1cc2c(cc1OC)CC(NC(=O)C(N)Cc1ccc(O)cc1)CC2 (stereo not shown) [ST 589, 2-N-tyrosyl-6,7-dimethoxy tetraline hydrochloride] | > 50 mg/kg | > 50 mg/kg | 218 mg/kg | – | S | EFFECT DURATION (hypotension in normotensive cats) ([3]; dose 1 mg/kg): S; ANTIHYPERTENSIVE EFFECT IN SHR HYPERTENSIVE RATS ([4]; 100 mg/kg os, 1st h): -26 mm Hg; ANTIHYPERTENSIVE EFFECT IN SHR HYPERTENSIVE RATS ([4]; 100 mg/kg os, 2nd h): -20 mm Hg; ANTIHYPERTENSIVE EFFECT IN SHR HYPERTENSIVE RATS ([4]; 100 mg/kg os, 4th h): 0 mm Hg |
| CCN(C(=O)[C@H](C)NC(=O)[C@@H](N)Cc1c[nH]c2ccccc12)C1CCc2cc(OC)c(OC)cc2C1 (stereo partly shown) [ST 604, 2-(N-ethyl,N-tryptophylalanyl)amino-6,7-dimethoxy tetraline hydrochloride] | > 50 mg/kg | > 50 mg/kg | 85 mg/kg | 0 mm Hg | – | – |
| COc1cc2c(cc1OC)CC(NC(=O)[C@H](C)NC(=O)[C@@H](N)Cc1ccc(O)cc1)CC2.Cl (stereo partly shown) [ST 605, 2-(N-tyrosylalanyl)amino-6,7-dimethoxy tetraline hydrochloride] | > 50 mg/kg | > 50 mg/kg | 72.3 mg/kg | – | S | HYPOTENSIVE EFFECT IN NORMOTENSIVE CATS, hypotension ([3]; dose 1 mg/kg): 0 mm Hg; ANTIHYPERTENSIVE EFFECT IN SHR HYPERTENSIVE RATS ([4]; 100 mg/kg e.p., 1st h): -40 mm Hg; ANTIHYPERTENSIVE EFFECT IN SHR HYPERTENSIVE RATS ([4]; 100 mg/kg e.p., 2nd h): -38 mm Hg; ANTIHYPERTENSIVE EFFECT IN SHR HYPERTENSIVE RATS ([4]; 100 mg/kg e.p., 4th h): -29 mm Hg; ANTIHYPERTENSIVE EFFECT IN SHR HYPERTENSIVE RATS ([4]; 100 mg/kg os, single administration (*), 2nd h): -28 mm Hg; ANTIHYPERTENSIVE EFFECT IN SHR HYPERTENSIVE RATS ([4]; 100 mg/kg os, single administration (*), 4th h): -31 mm Hg; ANTIHYPERTENSIVE EFFECT IN SHR HYPERTENSIVE RATS ([4]; repeated administration (5 days) (**), dose column "--" below 100 os, 2nd h): -35 mm Hg; ANTIHYPERTENSIVE EFFECT IN SHR HYPERTENSIVE RATS ([4]; repeated administration (5 days) (**), dose column "--" below 100 os, 4th h): -17 mm Hg |
| CCN(C(=O)[C@H](C)NC(=O)[C@@H](N)CCSC)C1CCc2cc(OC)c(OC)cc2C1 (stereo partly shown) [ST 606, 2-(N-ethyl,N-methionylalanyl)amino-6,7-dimethoxy tetraline hydrochloride] | > 50 mg/kg | > 50 mg/kg | 150 mg/kg | – | S | EFFECT DURATION (hypotension in normotensive cats) ([3]; dose 1 mg/kg): S; EFFECT DURATION (hypotension in normotensive cats) ([3]; dose 4 mg/kg): S |
